# Results taken from patent EP1272659B1, “EARLY DIAGNOSIS OF M[…] HUMAN BEINGS” (Università degli Studi di Roma " Tor Vergata", priority 2000, dated 2001).
# Molecular target: T1, FAAH (anandamide hydrolase; arachidonoylethanolamide amidohydrolase, EC 3.5.1.4) in human lymphocyte homogenates (Homo sapiens, UniProt O00519)
# T1 construct: Lymphocytes were purified from peripheral blood by gradient centrifugation; from tissue; host or cells: human peripheral blood lymphocytes of pregnant women, homogenate
# T1 sequence (O00519 1-579): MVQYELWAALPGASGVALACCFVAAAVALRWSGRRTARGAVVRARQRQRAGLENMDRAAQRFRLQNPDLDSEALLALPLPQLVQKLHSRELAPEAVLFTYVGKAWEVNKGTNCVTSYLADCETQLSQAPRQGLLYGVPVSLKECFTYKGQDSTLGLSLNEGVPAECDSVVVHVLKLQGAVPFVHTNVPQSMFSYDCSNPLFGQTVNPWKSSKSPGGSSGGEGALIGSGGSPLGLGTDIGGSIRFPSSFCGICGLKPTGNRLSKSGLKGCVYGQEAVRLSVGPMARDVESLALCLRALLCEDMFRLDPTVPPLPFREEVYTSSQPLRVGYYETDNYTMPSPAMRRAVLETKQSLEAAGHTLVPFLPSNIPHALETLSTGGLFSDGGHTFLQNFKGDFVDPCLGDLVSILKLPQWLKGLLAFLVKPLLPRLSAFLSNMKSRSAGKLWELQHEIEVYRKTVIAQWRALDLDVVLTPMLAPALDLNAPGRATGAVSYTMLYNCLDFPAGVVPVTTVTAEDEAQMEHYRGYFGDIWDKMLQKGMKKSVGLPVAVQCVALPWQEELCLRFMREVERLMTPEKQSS
# Assay: Kinetic analysis of FAAH activity in human lymphocyte homogenates: release of [1-14C]arachidonic acid from [1-14C]anandamide, reversed phase HPLC
# Format: biochemical
# Conditions: <8 weeks of pregnancy; for apparent maximum velocity (Vmax): lymphocyte homogenates
# Procedure: The activity of FAAH (arachidonoylethanolamide amidohydrolase, EC 3.5.1.4) in human lymphocyte homogenates (20 µg/test) was determined by measuring the release of [1-^14C] arachidonic acid from [1-^14C] anandamide (NEN DuPont de Nemours, 52 mCi/mmol), using reversed phase high performance liquid cromatography as reported in Maccarrone et al. 1998.
# The difference in FAAH activity between the group of 43 subjects with normal pregnancy (mean value = 169.60 ± 30.20 pmol.min^-1.mg protein^-1) and the group of 7 women who aborted (mean value 60.43 ± 29.34 pmol.min^-1.mg protein^-1) was statistically significant (P<0.0001 by the Mann-Whitney test). Embryonic death occurred approximately 10 days later, i.e. at 8 to 11 weeks for the subjects <7- to <10-week pregnant, respectively. […] On the other hand, the bell-shaped curve found for FAAH activity in normal subjects is frequently observed with biological indicators of the first trimester of pregnancy, such as the beta-subunit of human chorionic gonadotropin (Goldstein in Obstet Gynecol 1994).
# FAAH (arachidonoylethanolamide amidohydrolase, EC 3.5.1.4) activity in human lymphocyte homogenates (20 µg/test) was determined by measuring the release of [1-^14C]arachidonic acid from [1-^14C] anandamide (NEN DuPont de Nemours, 52 mCi/mmol), using reverse phase high performance liquid cromatography as reported (Maccarrone et al. 1998). It has to be pointed out that the use of [^3H] anandamide, measuring the release of [^3H]arachidonic acid, yields the same results.
compound,measurement,setting,value
"CCCCC/C=C\C/C=C\C/C=C\C/C=C\CCCC(=O)NCCO [anandamide, arachidonoylethanolamide]",apparent maximum velocity (Vmax),subjects who miscarried,75 ± 8 pmol.min^-1.mg protein^-1
same,apparent maximum velocity (Vmax),subjects with normal gestation,187 ± 20 pmol.min^-1.mg protein^-1
same,Km,"read-out: apparent Michaelis-Menten constant (Km), lymphocyte homogenates (20 µg/test), same value for subjects with normal gestation and those who miscarried",8 ± 1 µM
